Data set [1] relates to SARS-CoV-2. As to the kind of experiment: SARS-CoV-2 viral infectivity assay. The class given is cell-based. Conditions: A549+ACE2 cells; for direct antiviral effect on SARS-CoV-2 on their own: 72 h post infection, compound alone; for synergy with remdesivir, SARS-CoV-2: combination with remdesivir, #79: 60 μM, #96: […] μM, #102: 25 μM.
Data set [2] relates to HCoV-OC43. As to the kind of experiment: HCoV-OC43 viral infectivity assay. The class given is cell-based. Conditions: HCoV-OC43, HMC3 cells; combination with remdesivir; #79: 60 μM, #96: […] μM, #102: 25 μM. As to the method: HMC3 cells were seeded into black 96-well plates at 90% confluency. The next day, media was removed and replaced with complete media containing compounds/carrier 2 h prior to infection. After that, 5 μl of HCoV-OC43 virus was added to each well at an MOI of 0.005 for a final total volume of 100 μl/well. The plates were incubated at 33 °C. The viral suspension was removed after 12 h and drugs were added back to the cells to further incubate at 33 °C for 36 h. At 48 h post infection, cells were fixed with 4 % PFA in the media for 15 min. Residual PFA was quenched with a 50 mM NH4Cl and 100 mM NaCl solution. Cells were permeabilized and blocked in 5% FBS, 3% BSA, 0.05% Triton X-100 and 0.005% NaN3 in PBS for an hour. Anti-N antibody (Sigma 542-7D) was diluted in 4% FBS in PBS at 1:1000 dilution and was applied at 4 °C for 16 h. After several washing steps, cells were stained with AlexaFluor 594 and DAPI. For determination of cytotoxicity, HMC3 cells were seeded into opaque white wall 96-well plates. The following day, media was removed, replaced with media containing compounds/carrier and incubated for 48 h. After 48 h, cell viability was determined using alamarBlue™ Cell Viability Reagent using an Infinite 200 PRO microplate reader (Tecan).
Plates were scanned on a Citation 5 Imaging Multi-Mode Reader (BioTek). Gen5 software (version 3.10) was used for both image acquisition and analysis. A total number of 16 images/well were collected at 4x magnification to span the entire well. DAPI channel was used to build primary masks for the nucleus. Secondary masks were built within a 15 μm ring around the primary nuclear mask. Infection efficiencies were calculated from the ratio of the total fluorescence intensity within the secondary mask and the total area of the secondary mask for each well. Microscope images were prepared for publication using ImageJ (version 1.53i).

The conditions of data set [3]: clinical studies in Japan, gastric diseases; cited from earlier work.

SMILES strings stand for the structures.

In the case of `O=C(NCc1ccc(F)cc1)C1C(=O)N(O)C(=O)c2cc(C(F)(F)F)ccc21` (stereo not shown) [#79, 7-trifluoromethyl-N-(4-fluorobenzyl)−2-hydroxy-1,3-dioxo-4H-isoquinoline-4-carboxamide], in data set [1], the “direct antiviral effect on SARS-CoV-2 on their own” value (“direct antiviral effect” for short) is listed as “no direct antiviral effect was detected” and the “synergy with remdesivir, SARS-CoV-2” value is recorded as “synergized with remdesivir”. Moreover, the “lowering of the EC50 of remdesivir” value in data set [2] is given as ~ 5 fold.
As for `CC(C)=CCc1c(O)ccc(C(=O)/C=C/c2ccc(O)cc2)c1O` [#96, Isobavachalcone], in data set [1], the “direct antiviral effect” value is given as “no direct antiviral effect was detected” and the “synergy with remdesivir, SARS-CoV-2” value is “synergized with remdesivir”. The “lowering of the EC50 of remdesivir” value in data set [2] was ~ 5 fold.
In the case of `CC(C)=CCOc1ccc(/C=C/C(=O)c2ccc(OCC=C(C)C)cc2OCC(=O)O)cc1` [#102, Sofalcone, reference compound], in data set [1], the “direct antiviral effect” value was “no direct antiviral effect was detected” and the “synergy with remdesivir, SARS-CoV-2” value is “synergized with remdesivir”. Further, the tolerability in humans entry in data set [3] is “well tolerated by humans”. For the same compound, the “lowering of the EC50 of remdesivir” value in data set [2] is on record as ~ 5 fold.

(Values after article PMC8640510 (Cell Death and Differentiation, 2021).)
